Results as given in ChEMBL document CHEMBL1142020, “2-substituted-4-aryl-6,7,8,9-tetrahydro-5H-pyrimido[4,5-b][1,5]oxazocin-5-one as a structurally new NK1 antagonist” (2005).

Columns and labels:
[1] = Effective bladder capacity increasing effect of compound (0.3 mg/kg i.v.) expressed as the ratio of increase in effective bladder capacity compared to saline treated animals in vivo; type: functional, Cavia porcellus
[2] = molecular target: Substance-P receptor (Cavia porcellus) (UniProt P30547); experiment: Antagonist activity against tachykinin receptor 1 activity in guinea pig ileum in vitro; type: functional, tissue-based
Chain of Substance-P receptor (Cavia porcellus) (P30547 whole entry): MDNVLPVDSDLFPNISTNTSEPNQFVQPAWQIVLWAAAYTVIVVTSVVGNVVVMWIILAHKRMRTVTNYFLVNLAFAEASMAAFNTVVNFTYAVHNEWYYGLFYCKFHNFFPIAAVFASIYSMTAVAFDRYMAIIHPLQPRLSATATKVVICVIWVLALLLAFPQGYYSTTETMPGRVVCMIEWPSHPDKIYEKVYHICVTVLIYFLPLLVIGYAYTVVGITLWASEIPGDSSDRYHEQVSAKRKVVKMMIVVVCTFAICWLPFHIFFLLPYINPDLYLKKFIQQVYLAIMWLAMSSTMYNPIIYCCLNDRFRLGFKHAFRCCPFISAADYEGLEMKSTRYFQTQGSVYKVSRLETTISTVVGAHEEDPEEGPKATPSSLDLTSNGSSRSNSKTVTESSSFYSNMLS

Structure (SMILES) | Effect [1] [%] | Kb [2] [nM]
Cc1ccc(-c2c3n(c(=O)c4ncccc24)CC[C@@H](C)CN(Cc2cc(C(F)(F)F)cc(C(F)(F)F)c2)C3=O)cc1 | 12 | 0.27
Cc1ccccc1-c1nc(N2CCC(N3CCCC3)CC2)cc2c1C(=O)N(Cc1cc(C(F)(F)F)cc(C(F)(F)F)c1)CCCO2 | 3.97 | 0.339
Cc1ccccc1-c1nc(N2CCC(N3CCCC3)CC2)nc2c1C(=O)N(Cc1cc(C(F)(F)F)cc(C(F)(F)F)c1)CCCO2 | 33.4 | 0.166
Cc1ccccc1-c1cc(N2CCC(N3CCCC3)CC2)nc2c1C(=O)N(Cc1cc(C(F)(F)F)cc(C(F)(F)F)c1)CCCO2 | 24.2 | –
